Measured values taken from the supplement of paper PMC9663587.

Experiments:
SUM52PE = test: GRmax, 72 h; higher = less effect;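 further: breast cell lines in 384-well plates, nine doses across a 10^4 range, Dye Drop imaging of viable cells vs DMSO and time-zero plates, GR 0 means no net growth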
CAL120 = test: GRmax, 72 h; higher = less effect;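 further: breast cell lines in 384-well plates, nine doses across a 10^4 range, Dye Drop imaging of viable cells vs DMSO and time-zero plates, GR 0 means no net growth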
CAMA1 = test: GRmax, 72 h; higher = less effect;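 further: breast cell lines in 384-well plates, nine doses across a 10^4 range, Dye Drop imaging of viable cells vs DMSO and time-zero plates, GR 0 means no net growth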
T47D = test: GRmax, 72 h; higher = less effect;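 further: breast cell lines in 384-well plates, nine doses across a 10^4 range, Dye Drop imaging of viable cells vs DMSO and time-zero plates, GR 0 means no net growth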
EFM19 = test: area over the GR curve, 72 h; higher = more effect;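 further: Dye Drop or Deep Dye Drop imaging of viable cells in 384-well plates (Hoechst nuclei, LIVE/DEAD dye), nine half-log doses, GR normalized to DMSO controls and time-zero plates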
HCC1937 = test: area over the GR curve, 72 h; higher = more effect;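 further: Dye Drop or Deep Dye Drop imaging of viable cells in 384-well plates (Hoechst nuclei, LIVE/DEAD dye), nine half-log doses, GR normalized to DMSO controls and time-zero plates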
CAL851 = test: area over the GR curve, 72 h; higher = more effect;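 further: Dye Drop or Deep Dye Drop imaging of viable cells in 384-well plates (Hoechst nuclei, LIVE/DEAD dye), nine half-log doses, GR normalized to DMSO controls and time-zero plates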
MDAMB453 = test: area over the GR curve, 72 h; higher = more effect;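 further: Dye Drop or Deep Dye Drop imaging of viable cells in 384-well plates (Hoechst nuclei, LIVE/DEAD dye), nine half-log doses, GR normalized to DMSO controls and time-zero plates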
MDAMB361 = test: area over the GR curve, 72 h; higher = more effect
MDAMB231 = test: area over the GR curve, 72 h; higher = more effect
HCC1419 = test: area over the GR curve, 72 h; higher = more effect

Row | SMILES | GRmax, 72 h (SUM52PE) [GR] | GRmax, 72 h (CAL120) [GR] | GRmax, 72 h (CAMA1) [GR] | GRmax, 72 h (T47D) [GR] | area over the GR curve (EFM19) [GR] | area over the GR curve (HCC1937) [GR] | area over the GR curve (CAL851) [GR] | area over the GR curve (MDAMB453) [GR] | area over the GR curve (MDAMB361) [GR] | area over the GR curve (MDAMB231) [GR] | area over the GR curve (HCC1419) [GR]
1 | COc1cccc2c1C(=O)c1c(O)c3c(c(O)c1C2=O)C[C@@](O)(C(=O)CO)C[C@@H]3O[C@H]1C[C@H](N)[C@H](O)[C@H](C)O1 [Doxorubicin] (max 3.162 µM) | -0.0432 | -0.247 | -0.652 | -0.361 | 0.448 | 0.579 | 0.848 | 0.786 | 0.912 | 0.818 | 0.59
2 | CC(=O)c1c(C)c2cnc(Nc3ccc(N4CCNCC4)cn3)nc2n(C2CCCC2)c1=O (max 3.162 µM) | 0.346 | 0.669 | 0.282 | 0.117 | 0.179 | -0.0629 | -0.0843 | 0.437 | 0.473 | 0.345 | 0.208
3 | Cc1nn(C)c(COc2ccc(N3CCN(S(=O)(=O)N(C)C)CC3)cc2)c1-c1cccc2c(CCCOc3cccc4ccccc34)c(C(=O)O)n(CCN3CCOCC3)c12 (max 10 µM) | 0.373 | 0.943 | 0.876 | 0.575 | -0.0581 | 0.006 | 0.0108 | -0.0756 | -0.0172 | 0.0519 | 0.0402
4 | CN(C)C/C=C/C(=O)Nc1ccc(C(=O)Nc2cccc(Nc3cc(-c4c[nH]c5ccccc45)ncn3)c2)cc1 [THZ-P1-2] (max 10 µM) | -0.598 | -0.278 | -0.626 | -0.453 | 0.131 | 0.288 | 0.217 | 0.533 | 0.789 | 0.163 | 0.019
5 | CN1CCN(CCOc2cc(OC3CCOCC3)c3c(Nc4c(Cl)ccc5c4OCO5)ncnc3c2)CC1 [Saracatinib/AZD0530] (max 10 µM) | 0.486 | 0.526 | 0.774 | 0.389 | 0.149 | 0.039 | 0.184 | 0.0491 | 0.406 | 0.269 | 0.264
6 | CC(C)Nc1cc(-c2c[nH]c(C(=O)N[C@H](CO)c3cccc(Cl)c3)c2)c(Cl)cn1 [BVD523] (max 10 µM) | 0.315 | 0.482 | 0.156 | 0.217 | 0.0226 | 0.119 | 0.2 | 0.0704 | 0.193 | 0.232 | 0.0554
7 | Cc1cc(Nc2ncc(Cl)c(Nc3ccccc3S(=O)(=O)C(C)C)n2)c(OC(C)C)cc1C1CCNCC1 [Ceritinib/LDK378] (max 10 µM) | 0.559 | -0.432 | -0.699 | -0.855 | 0.0971 | 0.133 | 0.372 | 0.461 | 0.546 | 0.344 | 0.206
8 | NC1(C(=O)N[C@@H](CCO)c2ccc(Cl)cc2)CCN(c2nc[nH]c3nccc2-3)CC1 [AZD5363] (max 10 µM) | 0.18 | 0.806 | -0.124 | 0.179 | 0.304 | 0.353 | 0.106 | 0.234 | 0.367 | -0.0246 | 0.189
9 | CN(C)CC[C@H](CSc1ccccc1)Nc1ccc(S(=O)(=O)NC(=O)c2ccc(N3CCN(Cc4ccccc4-c4ccc(Cl)cc4)CC3)cc2)cc1[N+](=O)[O-] [ABT-737] (max 10 µM) | 0.441 | -0.434 | 0.864 | 0.589 | 0.111 | 0.0829 | -0.0516 | -0.0061 | -0.0339 | 0.162 | -0.0276
10 | O=C1NC(=NCc2cccs2)SC1=Cc1ccc2ncccc2c1 [R0-3306] (max 10 µM) | 0.114 | 0.15 | 0.0254 | -0.0261 | 0.132 | 0.143 | 0.159 | 0.102 | 0.0965 | 0.0059 | -0.0238
11 | NC(=O)Nc1cc(-c2cccc(F)c2)sc1C(=O)N[C@H]1CCCNC1 [AZD7762] (max 10 µM) | -0.322 | -0.495 | -0.0865 | -0.0573 | 0.222 | 0.447 | 0.648 | 0.853 | 1.05 | 0.527 | 0.561
12 | CC(=O)c1c(C)c2cnc(Nc3ccc(N4CCN(CCOCCOCCOCCNC(=O)COc5cccc6c5C(=O)N(C5CCC(=O)NC5=O)C6=O)CC4)cn3)nc2n(C2CCCC2)c1=O (stereo not drawn) [BSJ-03-123] (max 10 µM) | 0.227 | 0.239 | 0.0546 | 0.0948 | 0.318 | 0.0357 | 0.405 | 0.267 | 0.439 | 0.353 | 0.415
13 | CC(C)NC[C@@H](C(=O)N1CCN(c2ncnc3c2[C@H](C)C[C@H]3O)CC1)c1ccc(Cl)cc1 [Ipatasertib/GDC0068] (max 10 µM) | 0.271 | 0.599 | -0.236 | 0.133 | 0.185 | 0.156 | 0.166 | 0.27 | 0.453 | 0.0065 | 0.0911
14 | Nc1ccc(-c2ccc3ncc4ccc(=O)n(-c5cccc(C(F)(F)F)c5)c4c3c2)cn1 [Torin2] (max 1 µM) | -0.351 | -0.0115 | -0.147 | 0.0099 | 0.501 | 0.291 | 0.54 | 0.679 | 0.869 | 0.386 | 0.634
15 | Cc1nc(NC(=O)N2CCC[C@H]2C(N)=O)sc1-c1ccnc(C(C)(C)C(F)(F)F)c1 [Alpelisib/BYL719] (max 10 µM) | 0.0427 | 0.608 | 0.979 | -0.0332 | 0.445 | 0.0501 | 0.194 | 0.335 | 0.531 | 0.0895 | 0.356
16 | O=C(CCCCCCC(=O)Nc1ccccc1)NO [Vorinostat] (max 10 µM) | 0.0882 | -0.228 | -0.49 | -0.157 | 0.162 | 0.193 | 0.201 | 0.263 | 0.457 | 0.282 | 0.148
17 | O=C(c1cc(Cc2n[nH]c(=O)c3ccccc23)ccc1F)N1CCN(C(=O)C2CC2)CC1 [Olaparib/AZD2281] (max 10 µM) | 0.88 | 0.269 | 0.679 | 0.53 | 0.0595 | 0.0584 | 0.135 | 0.241 | 0.0967 | 0.0581 | 0.018
18 | CNC(=O)c1cccc(-c2ccc3c(N4CCOC[C@@H]4C)nc(N4CCOC[C@@H]4C)nc3n2)c1 [AZD2014] (max 10 µM) | -0.0804 | 0.206 | -0.0933 | -0.0708 | 0.829 | 0.52 | 0.637 | 0.692 | 1.2 | 0.405 | 0.942
19 | COc1cc(N2CCN(C)CC2)ccc1Nc1ncc2c(n1)N(C)c1ccccc1C(=O)N2CC(F)(F)F [FMF-03-146-1] | 1.04 | 0.968 | 0.82 | 0.683 | 0.0185 | 0.0547 | 0.0805 | 0.0207 | 0.126 | 0.0225 | 0.0393
20 | CCOc1cc2ncc(C#N)c(Nc3ccc(OCc4ccccn4)c(Cl)c3)c2cc1NC(=O)/C=C/CN(C)C [Neratinib/HKI272] (max 3.162 µM) | 0.491 | -0.261 | 0.449 | 0.195 | 0.0236 | 0.171 | 0.538 | 0.553 | 0.425 | 0.105 | 0.993
21 | Cc1nc(-c2cn3c(n2)-c2ccc(-c4cnn(C(C)(C)C(N)=O)c4)cc2OCC3)n(C(C)C)n1 [Taselisib/GDC0032] (max 10 µM) | -0.0187 | 0.151 | -0.152 | -0.105 | 0.944 | 0.277 | 0.55 | 1.01 | 1.41 | 0.254 | 0.852
22 | COc1ccc2c(c1)[C@]1(C[C@H]1c1ccc3c(/C=C/c4ccc(CN5C[C@@H](C)O[C@@H](C)C5)cc4)n[nH]c3c1)C(=O)N2 | 0.121 | 0.175 | -0.0117 | -0.0071 | 0.397 | 0.655 | 0.761 | 0.537 | 0.425 | 0.765 | 0.425
23 | C=CCn1c(=O)c2cnc(Nc3ccc(N4CCN(C)CC4)cc3)nc2n1-c1cccc(C(C)(C)O)n1 [AZD1775] (max 10 µM) | -0.226 | -0.238 | -0.206 | 0.162 | 0.23 | 0.707 | 0.491 | 0.563 | 0.897 | 0.606 | 0.238
